Assay [1] relates to HER2 and HER4 activation in BT-474 cells. The assay can be described thus: HER2 and HER4 activation assessed by phosphorylation of downstream targets (FIG. 16). Format: cell-based. To be noted: BT-474, ibrutinib compared to AVL-292.
In assay [2] the test system is EGFR, HER2, HER4 and downstream targets (MEK, Akt signaling pathway). In words: Signaling pathway inhibition (FIGS. 19-21). To be noted: for inhibition of MEK and Akt signaling pathway compared with EGFR and HER2 signaling pathway: FIG. 21. The assay is classed as cell-based.
In another assay the target is T1, BTK (Homo sapiens, UniProt Q06187).
T1 construct: endogenous in cells; host or cells: DoHH2
T1 sequence (Q06187 whole entry): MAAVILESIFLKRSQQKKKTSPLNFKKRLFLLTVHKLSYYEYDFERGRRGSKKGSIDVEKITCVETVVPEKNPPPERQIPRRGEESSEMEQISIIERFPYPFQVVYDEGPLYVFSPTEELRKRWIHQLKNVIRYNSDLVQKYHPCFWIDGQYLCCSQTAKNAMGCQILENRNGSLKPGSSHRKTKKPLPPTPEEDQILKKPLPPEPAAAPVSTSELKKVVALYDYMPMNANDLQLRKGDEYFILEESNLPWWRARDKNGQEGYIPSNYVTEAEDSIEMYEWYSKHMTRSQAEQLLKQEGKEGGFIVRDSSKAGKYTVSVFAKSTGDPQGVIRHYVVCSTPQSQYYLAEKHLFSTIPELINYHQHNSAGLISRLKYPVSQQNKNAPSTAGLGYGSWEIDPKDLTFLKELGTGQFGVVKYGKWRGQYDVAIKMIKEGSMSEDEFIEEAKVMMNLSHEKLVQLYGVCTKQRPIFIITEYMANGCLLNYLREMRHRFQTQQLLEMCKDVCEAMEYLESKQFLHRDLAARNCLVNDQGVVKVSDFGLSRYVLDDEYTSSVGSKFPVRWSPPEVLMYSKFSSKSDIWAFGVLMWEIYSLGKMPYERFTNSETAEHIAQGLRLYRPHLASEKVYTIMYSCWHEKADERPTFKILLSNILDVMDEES
In words: Covalent binding to Btk, DoHH2 cells with PCI-33380 (FIG. 24). The following applies: inhibitors 1 h, then PCI-33380 2 uM 30 min.

Another assay has as its target Erb4 (Homo sapiens, UniProt Q15303). In words: Kinase activity assay (LabChip platform, Nanosyn).
Another assay has as its target TEC (Homo sapiens, UniProt P42680). The assay can be described thus: Kinase activity assay (LabChip platform, Nanosyn). The assay is classed as biochemical. The following applies: recombinant enzyme 5 nM, substrate 1 μM.
The target of a further assay is JAK3 (Homo sapiens, UniProt P52333). The assay can be described thus: Kinase activity assay (LabChip platform, Nanosyn). The assay is classed as biochemical. The following applies: recombinant enzyme 5 nM, substrate 1 μM.
In assay [3] the test system is SK-BR3 cells. In words: Cell proliferation assay with alamar blue. To be noted: SK-BR3, 3 days continuous exposure.
Assay [4] concerns BT-474 cells. In words: Cell proliferation assay with alamar blue. To be noted: BT-474, 3 days continuous exposure. (In general: Alamar Blue is a resazurin reagent that responds to reducing activity.)
For assay [5], the system named is aldehyde dehydrogenase (ALDH) in BT-474 cells. The assay can be described thus: Aldefluor assay.
The target of the next assay is BLK (Homo sapiens, UniProt P51451). The assay can be described thus: Kinase activity assay (LabChip platform, Nanosyn). Format: biochemical. To be noted: recombinant enzyme 5 nM, substrate 1 μM.
The next assay concerns the target ITK (Homo sapiens, UniProt Q08881). The assay can be described thus: Kinase activity assay (LabChip platform, Nanosyn). The assay is classed as biochemical. The following applies: recombinant enzyme 5 nM, substrate 1 μM.
The test system of assay [6] is BT-474 cells. In words: Resistance induced by heregulin. Format: cell-based. The following applies: BT-474, higher concentration of ibrutinib.
Assay [7] has as its system BT-474 cells. The assay can be described thus: Cell growth inhibition wash out assay. The assay is classed as cell-based. To be noted: BT-474, 1 hour exposure (0.1, 0.25, 0.5 μM), 6 days culture.
The subject of assay [8] is MDA-MB-453 cells. The assay can be described thus: Resistance induced by heregulin. To be noted: MDA-MB-453, higher concentration of ibrutinib. The assay is classed as cell-based.
In assay [9] the test system is SK-BR3 cells. The assay can be described thus: Cell cycle analysis. The assay is classed as cell-based. The following applies: SK-BR3, 1 h exposure, measured at 24 h.
Another assay deals with UACC-893 cells. In words: Cell proliferation assay with alamar blue. Format: cell-based. The following applies: UACC-893, 3 days continuous exposure.
In the next assay the target is HER4 (Homo sapiens, UniProt Q15303). In words: HER4 dialysis assay. The assay is classed as biochemical. The following applies: 10 nM or 100 nM, 1 h pre-incubation, 24 h dialysis.
Chain of HER4 (Q15303 26-1292 isoform Q15303-3 limits assumed): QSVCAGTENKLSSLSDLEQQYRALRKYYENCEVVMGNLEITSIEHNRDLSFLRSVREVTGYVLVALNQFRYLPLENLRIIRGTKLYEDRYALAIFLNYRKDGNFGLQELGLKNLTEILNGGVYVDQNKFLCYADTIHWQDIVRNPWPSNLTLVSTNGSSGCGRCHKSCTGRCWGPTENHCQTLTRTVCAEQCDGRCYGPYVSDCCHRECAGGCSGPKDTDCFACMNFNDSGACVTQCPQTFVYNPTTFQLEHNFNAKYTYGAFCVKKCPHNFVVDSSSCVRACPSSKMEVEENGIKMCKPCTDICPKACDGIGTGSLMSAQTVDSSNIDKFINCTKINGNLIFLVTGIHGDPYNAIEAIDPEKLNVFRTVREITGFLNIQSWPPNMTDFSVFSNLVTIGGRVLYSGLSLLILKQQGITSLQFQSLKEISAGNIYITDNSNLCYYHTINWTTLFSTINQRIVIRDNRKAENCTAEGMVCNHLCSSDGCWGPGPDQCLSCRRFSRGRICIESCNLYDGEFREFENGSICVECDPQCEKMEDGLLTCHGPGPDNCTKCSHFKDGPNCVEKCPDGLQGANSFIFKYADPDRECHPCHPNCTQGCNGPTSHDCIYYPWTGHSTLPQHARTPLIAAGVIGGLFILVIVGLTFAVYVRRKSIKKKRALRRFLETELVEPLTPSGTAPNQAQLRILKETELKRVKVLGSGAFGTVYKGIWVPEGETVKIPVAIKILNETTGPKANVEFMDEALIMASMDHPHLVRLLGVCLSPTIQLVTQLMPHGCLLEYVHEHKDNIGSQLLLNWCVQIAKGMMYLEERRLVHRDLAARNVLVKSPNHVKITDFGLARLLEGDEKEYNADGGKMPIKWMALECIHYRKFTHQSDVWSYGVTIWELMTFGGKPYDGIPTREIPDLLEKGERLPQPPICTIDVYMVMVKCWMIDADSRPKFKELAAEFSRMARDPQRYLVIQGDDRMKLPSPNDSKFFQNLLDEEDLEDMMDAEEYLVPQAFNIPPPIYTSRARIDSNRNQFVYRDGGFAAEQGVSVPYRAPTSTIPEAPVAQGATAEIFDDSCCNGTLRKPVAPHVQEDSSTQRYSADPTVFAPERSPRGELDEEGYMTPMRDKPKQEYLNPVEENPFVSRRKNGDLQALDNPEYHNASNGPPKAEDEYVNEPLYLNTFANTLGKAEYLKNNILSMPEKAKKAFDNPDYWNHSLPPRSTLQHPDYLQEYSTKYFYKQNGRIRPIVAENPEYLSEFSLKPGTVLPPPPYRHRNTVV
For a further assay, the system named is MDA-MB-453 xenograft. The assay can be described thus: Mouse MDA-MB-453 xenograft. The assay is classed as in vivo.
For assay [10], the system named is BT-474 cells. The assay can be described thus: Apoptosis assay (annexin-V / sub G0). The assay is classed as cell-based.
The next assay concerns the target LCK (Homo sapiens, UniProt P06239). In words: LCK dialysis assay. To be noted: 10 nM or 100 nM, 1 h pre-incubation, 24 h dialysis. The assay is classed as biochemical. The procedure: Control samples included: DMSO+5 nM LCK dialyzed in the identical manner. […] Initial velocity was determined in the samples.
The subject of a further assay is HER signaling pathway. The assay can be described thus: One hour treatment followed by washout, signaling pathways (FIG. 33). Format: cell-based.
Assay [11] relates to BT-474 cells. The assay can be described thus: Cell cycle analysis. Format: cell-based. To be noted: BT-474, 1 h exposure, measured at 24 h.
Another assay has as its target EGFR (Homo sapiens, UniProt P00533). The assay can be described thus: EGFR dialysis assay. Format: biochemical. The following applies: 10 nM or 100 nM, 1 h pre-incubation, 24 h dialysis. As for the experimental part:
Control samples included: DMSO+5 nM EGFR dialyzed in the identical manner. […] Initial velocity was determined in the samples.

For assay [12], the system named is MDA-MB-453 cells. In words: Cell proliferation assay with alamar blue.
Another assay concerns the target EGFR (ErbB1) (Homo sapiens, UniProt P00533). The assay can be described thus: Kinase activity assay (LabChip platform, Nanosyn). The following applies: recombinant enzyme 5 nM, substrate 1 μM.
The test system of assay [13] is BT-474 cells. The assay can be described thus: Tumorsphere culture. Format: cell-based. The following applies: BT-474, 1 hour treatment, wash out, seven days culture.
The subject of assay [14] is ErbB kinases and down-stream signaling pathways. The assay can be described thus: Washout experiment, immunoblotting of total and phosphorylated proteins (FIG. 10). Format: cell-based. The following applies: BT474 and SKBR-3, 0.1 or 0.5 μM, various times, then cultured additional 2 hours. The procedure: Cells were washed once with cold PBS and lysed in 1× sample buffer (Invitrogen). The whole cell lysate was boiled, sonicated, and then loaded onto a 4-15% gradient SDS-PAGE gel. The proteins were transferred to PVDF membrane. After probing with antibodies, the detection was conducted using an Odyssey […] (Li-Cor). Paired mouse and rabbit antibodies were used to probe the total and corresponding phosphorylated proteins.
Background: Immunoblotting shows a protein as a band on a membrane.

In assay [15] the test system is Btk signaling pathways in Mino cells. In words: Signaling pathways in B cells (FIG. 23). Format: cell-based.
Another assay has as its target ErB2 (Homo sapiens, UniProt P04626). The assay can be described thus: Kinase activity assay (LabChip platform, Nanosyn). To be noted: recombinant enzyme 5 nM, substrate 1 μM.
In assay [16] the test system is SK-BR3 cells. In words: Cell growth inhibition wash out assay. Format: cell-based. The following applies: SK-BR3, 1 hour exposure (0.1, 0.25, 0.5 μM), 6 days culture.
The next assay addresses TXK (Homo sapiens, UniProt P42681). In words: Kinase activity assay (LabChip platform, Nanosyn). The assay is classed as biochemical. The following applies: recombinant enzyme 5 nM, substrate 1 μM.
The target of the next assay is ErbB kinases. In words: Separate dialysis experiment on kinase inhibition (data not shown). Format: biochemical.

Molecules are shown by their SMILES. “Also recorded” adds a separate entry of the source. Like-named read-outs stand apart in the source and are kept apart here.

Chain of Erb4 (Q15303 26-1292 isoform Q15303-3 limits assumed): as above
Chain of LCK (P06239 whole entry, species assumed): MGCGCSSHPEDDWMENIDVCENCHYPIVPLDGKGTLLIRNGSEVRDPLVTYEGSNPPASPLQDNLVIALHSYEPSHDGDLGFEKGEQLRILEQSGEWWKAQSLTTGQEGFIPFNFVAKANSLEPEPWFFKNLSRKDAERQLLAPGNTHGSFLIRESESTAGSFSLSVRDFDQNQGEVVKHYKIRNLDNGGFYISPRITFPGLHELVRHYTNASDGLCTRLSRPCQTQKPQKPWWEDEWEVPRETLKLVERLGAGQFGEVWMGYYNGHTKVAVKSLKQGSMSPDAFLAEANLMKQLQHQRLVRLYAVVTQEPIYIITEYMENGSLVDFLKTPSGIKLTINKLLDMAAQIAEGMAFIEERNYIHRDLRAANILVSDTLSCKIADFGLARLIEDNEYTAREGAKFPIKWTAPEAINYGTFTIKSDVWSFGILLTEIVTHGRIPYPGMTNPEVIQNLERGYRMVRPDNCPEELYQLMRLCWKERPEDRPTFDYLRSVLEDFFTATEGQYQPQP
Chain of EGFR (ErbB1) (P00533 25-1210): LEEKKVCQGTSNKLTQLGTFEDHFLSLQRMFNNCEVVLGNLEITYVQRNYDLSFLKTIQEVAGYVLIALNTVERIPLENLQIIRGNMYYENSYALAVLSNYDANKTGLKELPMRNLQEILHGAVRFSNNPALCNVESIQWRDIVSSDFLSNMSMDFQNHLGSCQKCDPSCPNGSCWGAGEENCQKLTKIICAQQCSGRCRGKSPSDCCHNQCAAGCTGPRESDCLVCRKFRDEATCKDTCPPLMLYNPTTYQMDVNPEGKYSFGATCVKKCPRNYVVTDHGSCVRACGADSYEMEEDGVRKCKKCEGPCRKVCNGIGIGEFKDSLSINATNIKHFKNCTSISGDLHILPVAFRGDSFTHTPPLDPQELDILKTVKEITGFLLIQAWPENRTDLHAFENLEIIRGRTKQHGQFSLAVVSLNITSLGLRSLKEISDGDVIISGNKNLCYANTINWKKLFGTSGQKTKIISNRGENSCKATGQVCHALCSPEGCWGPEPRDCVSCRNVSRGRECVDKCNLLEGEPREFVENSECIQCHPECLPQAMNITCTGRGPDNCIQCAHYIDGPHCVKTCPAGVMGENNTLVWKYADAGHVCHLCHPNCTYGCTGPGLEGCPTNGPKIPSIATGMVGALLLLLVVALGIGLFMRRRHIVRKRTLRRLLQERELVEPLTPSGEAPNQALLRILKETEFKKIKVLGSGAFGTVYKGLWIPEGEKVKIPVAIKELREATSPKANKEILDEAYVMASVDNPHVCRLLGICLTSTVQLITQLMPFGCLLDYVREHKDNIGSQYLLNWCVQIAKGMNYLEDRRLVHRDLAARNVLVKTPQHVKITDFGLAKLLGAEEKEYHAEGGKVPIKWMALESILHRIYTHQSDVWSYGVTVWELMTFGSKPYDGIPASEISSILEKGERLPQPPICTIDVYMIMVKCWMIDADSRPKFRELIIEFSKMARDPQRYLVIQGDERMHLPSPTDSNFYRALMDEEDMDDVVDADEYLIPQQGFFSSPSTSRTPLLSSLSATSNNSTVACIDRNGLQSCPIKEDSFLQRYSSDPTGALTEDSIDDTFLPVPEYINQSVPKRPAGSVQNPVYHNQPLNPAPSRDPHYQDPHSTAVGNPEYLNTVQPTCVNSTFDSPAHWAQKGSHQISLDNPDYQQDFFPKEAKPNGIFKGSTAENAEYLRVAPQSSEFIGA
Chain of EGFR (P00533 25-1210): as above

Regarding `C=CC(=O)Nc1cccc(Nc2nc(Nc3ccc(OCCOC)cc3)ncc2F)c1` [AVL-292, reference compound], the “inhibition of HER2 and HER4 activation (phosphorylation of downstream targets, such as AKT)” value in assay [1] is listed as “only ibrutinib inhibited”.
For the compound `COc1cc2ncnc(Nc3ccc(F)c(Cl)c3)c2cc1NC(=O)/C=C/CN1CCCCC1` [dacomitinib, reference compound], the “inhibition of EGFR and downstream targets” value in assay [2] (FIG. 20) was “less effective”. The “covalent binding to Btk” value at BTK is “did not”.
As to `COc1cc2ncnc(Nc3ccc(F)c(Cl)c3)c2cc1OCCCN1CCOCC1` [gefitinib, reference compound], the “HER4 inhibitory activity compared to ibrutinib” value on Erb4 (stated without source) is on record as “lower HER2/4 inhibitory activity”.
Regarding `C=CC(=O)N1CCC[C@@H](n2nc(-c3ccc(Oc4ccccc4)cc3)c3c(N)ncnc32)C1` [ibrutinib, (R)-1-(3-(4-amino-3-(4-phenoxyphenyl)-1H-pyrazolo[3,4-d]pyrimidin-1-yl)piperidin-1-yl)prop-2-en-1-one], the “inhibition of TEC” value on TEC is recorded as “able to inhibit”. On JAK3, the “inhibition of JAK3” value was “able to inhibit”. In addition, the growth inhibitory effect result in the assay on SK-BR3 cells [3] is recorded as “sensitive to the growth inhibitory effect; also recorded: confirmed ibrutinib inhibitory activity”; in the assay on BT-474 cells [4], “sensitive to the growth inhibitory effect; also recorded: confirmed ibrutinib inhibitory activity”; with UACC-893 cells it was “sensitive to the growth inhibitory effect”; with MDA-MB-453 cells [12] (MDA-MB-453, 3 days continuous exposure), “sensitive to the growth inhibitory effect; also recorded: confirmed ibrutinib inhibitory activity”. Moreover, the “IC50 toward EGFR compared with HER2 and HER4” value in assay [2] (FIG. 19B) is recorded as “higher IC50”. The “inhibition of MEK and Akt signaling pathway compared with EGFR and HER2 signaling pathway” value is “more potent inhibitor of MEK and Akt pathways than the EGFR and HER2 pathways” in assay [2]; “potent inhibitor of the MEK and Akt signaling pathway than of the EGFR and HER2 signaling pathway” in [2] (listed as Ibrutinib). In addition, in assay [5] (BT-474, one hour or continuous treatment), the “putative stem-like subpopulation of breast cancer cells” value is recorded as “decreased”. For the same compound, the aldehyde dehydrogenase activity entry in [5] (BT-474, short exposures to high concentrations or continuous exposure to low concentration) is on record as “decreased aldehyde dehydrogenase activity”. The “inhibition of Erb4” value at Erb4 (recombinant enzyme 5 nM, substrate 1 μM) is reported as “able to inhibit; also recorded: effective in inhibiting”. The “inhibition of BLK” value on BLK was “able to inhibit”. Besides, on ITK, the “inhibition of ITK” value is reported as “able to inhibit”. Also, the “overcoming resistance induced by heregulin” value with BT-474 cells [6] and in the assay on MDA-MB-453 cells [8] was “able to overcome resistance induced by heregulin” in each case. Further, the “growth inhibitory effect after wash out” value is “sustained and was dose dependent” in the assay with BT-474 cells [7]; “sustained and was dose dependent” with SK-BR3 cells [16]. The cell cycle effect entry in the assay with SK-BR3 cells [9] and with BT-474 cells [11] was “G1 arrest” in each case. Also, the entries for the “reversibility of HER4 inhibition after dialysis” value at HER4 and on HER4 (listed as Ibrutinib) were “irreversible inhibition” and “irreversibly inhibits”, respectively. Further, the “solid tumor growth (tumor volume)” value with MDA-MB-453 xenograft is “inhibited solid tumor growth”. Moreover, the “apoptosis (annexin-V positivity or sub G0)” value in the assay on BT-474 cells [10] (BT-474, continuous treatment 3-day, with or without caspase inhibitor Q-VD-OPH) is listed as “dramatic apoptosis which was caspase-dependent”. Further, the “apoptosis (cells in sub G0)” value in the assay with BT-474 cells [10] (BT-474, one hour treatment, 6 days after the exposure) was “low level of apoptosis”. In addition, the results for the “reversibility of LCK inhibition after dialysis” value at LCK and at LCK (listed as Ibrutinib) were “reversible inhibition” and “reversibly inhibits”, respectively. Moreover, the “inhibitory effect on HER signaling pathway after washout” value with HER signaling pathway (day 6) is “lasting inhibitory effect even after day 6”; in the assay with HER signaling pathway (day 6, listed as Ibrutinib), “long-lasting inhibitory effect even after day 6”. The “inhibition of HER2 and HER4 activation (phosphorylation of downstream targets, such as AKT)” value in [1] was “only ibrutinib inhibited HER2 and HER4 activation”. Further, the results for the “reversibility of EGFR inhibition after dialysis” value at EGFR and at EGFR (listed as Ibrutinib) were “irreversible inhibition” and “irreversibly inhibits”, respectively. In addition, the “inhibition of cell growth compared to gefitinib” value in the assay on MDA-MB-453 cells [12] (MDA-MB-453, fluorescence-based assay) is given as “more potent than gefitinib”. The “inhibition of EGFR (ErbB1)” value at EGFR (ErbB1) is given as “able to inhibit; also recorded: effective in inhibiting”. In the assay on BT-474 cells [13], the “tumorsphere growth (size)” value was “inhibited tumorsphere growth”. Further, the tumorsphere number result in the assay on BT-474 cells [13] is on record as “without affecting tumorsphere number”. In addition, in assay [14], the “inhibition of ErbB kinases and down-stream signaling pathways after washout” value is “persisted after ibrutinib washout, and was time and concentration dependent”. The “inhibitory effect on Btk signaling pathways in B cells” value in assay [15] is reported as “selective inhibitory effect”; in assay [15] (listed as Ibrutinib) it was “selectively inhibits”. In addition, on ErB2, the “inhibition of ErB2” value is recorded as “able to inhibit; also recorded: effective in inhibiting”. Moreover, the “inhibition of TXK” value on TXK is recorded as “able to inhibit”. At ErbB kinases, the “kinase inhibition after dialysis” value is “dialysis resistant”.
In the case of `CS(=O)(=O)CCNCc1ccc(-c2ccc3ncnc(Nc4ccc(OCc5cccc(F)c5)c(Cl)c4)c3c2)o1` [lapatinib], the “covalent binding to Btk” value on BTK was “did not”.
With `CCOc1cc2ncc(C#N)c(Nc3ccc(OCc4ccccn4)c(Cl)c3)c2cc1NC(=O)/C=C/CN(C)C` [neratinib], the “covalent binding to Btk” value at BTK is given as “did not”.

These data come from patent US10016434B2, “Methods for the treatment of HER2 amplified cancer” (Pharmacyclics LLC, priority 2013, dated 2018).
